Experimental findings from PubChem BioAssay AID588339 (The Scripps Research Institute Molecular Screening Center, 2011) are described below.

Calls of active or inactive are those of the source. No rule for the calls is given here.

The test deals with TLR9-MyD88 CHO cells, cytotoxicity, luminescence. The test can be described thus: CHO cell viability loss, potency, luminescence, cytotoxicity control for TLR9-MyD88 binding inhibitor project, dose response (AID 588339).

Consider `COc1cc(/C=C/C(=O)/C=C(O)/C=C/c2ccc(O)c(OC)c2)ccc1O`, for which the IC50 (as a rule, the midpoint of a concentration-inhibition curve) is 34600 nM (inactive).

With `C[CH2][Hg][S]c1ccccc1C(=O)O`, the IC50 is 921 nM.
